# In patent US20080194632A1, “Novel Piperidine Derivatives as Chemokine Receptor Modulators Useful for the Treatment of Respiratory Diseases” (ASTRAZENECA AB, priority 2005, published 2008):
# Target: T1, human CCR1 (Homo sapiens, UniProt P32246)
# T1 construct: expressed in transfected cells; membranes prepared
# T1 sequence (P32246 1-355): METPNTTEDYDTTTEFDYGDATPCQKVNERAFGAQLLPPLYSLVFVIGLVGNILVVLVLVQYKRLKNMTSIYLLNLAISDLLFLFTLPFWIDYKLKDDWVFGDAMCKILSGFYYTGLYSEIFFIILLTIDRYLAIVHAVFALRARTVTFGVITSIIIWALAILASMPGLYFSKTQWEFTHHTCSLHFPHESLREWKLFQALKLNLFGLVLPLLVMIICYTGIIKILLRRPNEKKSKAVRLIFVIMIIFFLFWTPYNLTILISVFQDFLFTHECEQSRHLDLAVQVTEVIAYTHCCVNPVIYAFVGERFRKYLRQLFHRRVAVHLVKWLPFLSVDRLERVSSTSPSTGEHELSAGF
# Test: Human CCR1 binding assay ([125I] MIP-1α displacement)
# Conditions: displacement of 33 pM [125I] MIP-1α from HEK-CCR1 membranes, pH 7.4, 1.5 hrs at room temperature
# Method: HEK293 cells, from ECACC, stably expressing recombinant human CCR1 (HEK-CCR1) were used to prepare cell membranes containing CCR1. The membranes were stored at −70° C. The concentration of membranes of each batch was adjusted to 10% specific binding of 33 pM [^125I] MIP-1α.
# 100 μL of HEK-CCR1 membranes diluted in assay buffer pH 7.4 (137 mM NaCl (Merck, Cat No 1.06404), 5.7 mM Glucose (Sigma, Cat No G5400), 2.7 mM KCl (Sigma, Cat No P-9333), 0.36 mM NaH2PO4×H2O (Merck, Cat No 1.06346), 10 mM HEPES (Sigma, Cat No H3375), 0.1% (w/v) Gelatine (Sigma, Cat No G2625)) with the addition of 17500 units/L Bacitracin (Sigma, Cat No B 1025) were added to each well of the 96 well filter plate (0.45 μm opaque Millipore cat no MHVB N4550). 12 μL of compound in assay buffer, containing 10% DMSO, was added to give final compound concentrations of 1×10^−5.5-1×10^−9.5 M. 12 μl cold human recombinant MIP-1α (270-LD-050, R&D Systems, Oxford, UK), 10 nM final concentration in assay buffer supplemented with 10% DMSO, was included in certain wells (without compound) as non-specific binding control (NSB). 12 μl assay buffer with 10% DMSO was added to certain wells (without compound) to detect maximal binding (B0).
# 12 μL [^125I] MIP-1α, diluted in assay buffer to a final concentration in the wells of 33 pM, was added to all wells. The plates with lid were then incubated for 1.5 hrs at room temperature. After incubation the wells were emptied by vacuum filtration (MultiScreen Resist Vacuum Manifold system, Millipore) and washed once with 200 μl assay buffer. After the wash, all wells received an addition of 50 μL of scintillation fluid (OptiPhase “Supermix”, Wallac Oy, Turko, Finland). Bound [^125I] MIP-1α was measured using a Wallac Trilux 1450 MicroBeta counter. Window settings: Low 5-High 1020, 1-minute counting/well.
# The following equation was used to calculate percent displacement.
# Percent displacement=1−((cpm test−cpm NSB)/(cpm B0−cpm NSB)) where:
# cpm test=average cpm in duplicate wells with membranes and compound and [^125I] MIP-1α cpm; NSB=average cpm in the wells with membranes and MIP-1α and [^125I] MIP-1α (non-specific binding) cpm; B0=average cpm in wells with membranes and assay buffer and [^125I] MIP-1α (maximum binding).
# The molar concentration of compound producing 50% displacement (IC50) was derived using the Excel-based program XLfit (version 2.0.9) to fit data to a 4-parameter logistics function.
row,Structure (SMILES),IC50 [nM]
1,CCC(=O)Nc1ccc(O)cc1OC[C@@](C)(O)CNC1CCN(Cc2ccc(Cl)cc2)CC1 [Comparison 1],7
2,CC(=O)Nc1ccc(O)cc1OC[C@@H](O)CNC1CCN(Cc2ccc(Cl)cc2)CC1 [Comparison 8],4.5
3,CCC(=O)Nc1ccc(O)cc1OC[C@@H](O)CNC1CCN(Cc2ccc(Cl)cc2)CC1 [Comparison 9],13.6
4,CC(=O)Nc1ccc(O)cc1OC[C@@](C)(O)CNC1CCN(Cc2ccc(Cl)cc2)CC1 [Comparison 2],3.9

# These reach a lower IC50. Values come first.
row,IC50 [nM],Structure (SMILES)
1,1.6,"CC(=O)Nc1cc(Cl)c(O)cc1OC[C@@H](O)CNC1CCN(Cc2ccc(Cl)cc2)CC1 [Example 8, N-{5-Chloro-2-[((2S)-3-{[1-(4-chlorobenzyl)piperidin-4-yl]amino}-2-hydroxypropyl)oxy]-4-hydroxyphenyl}acetamide di-trifluoroacetate]"
2,2.7,"CCC(=O)Nc1cc(Cl)c(O)cc1OC[C@@H](O)CNC1CCN(Cc2ccc(Cl)cc2)CC1 [Example 9, N-{5-Chloro-2-[((2S)-3-{[1-(4-chlorobenzyl)piperidin-4-yl]amino}-2-hydroxylpropyl)oxy]-4-hydroxyphenyl}propaneamide di-trifluoroacetate]"
3,0.4,"CCC(=O)Nc1cc(Cl)c(O)cc1OC[C@@](C)(O)CNC1CCN(Cc2ccc(Cl)cc2)CC1 [Example 1, N-{5-Chloro-2-[((2S)-3-{[1-(4-chlorobenzyl)piperidin-4-yl]amino}-2-hydroxy-2-methylpropyl)oxy]-4-hydroxyphenyl}propaneamide di-trifluoroacetate]"
4,0.7,"CC(=O)Nc1cc(Cl)c(O)cc1OC[C@@](C)(O)CNC1CCN(Cc2ccc(Cl)cc2)CC1 [Example 2, N-{5-Chloro-2-[((2S)-3-{[1-(4-chlorobenzyl)piperidin-4-yl]amino}-2-hydroxy-2-methylpropyl)oxy]-4-hydroxyphenyl}acetamide di-trifluoroacetate]"
